“And” between values parts separate entries of the source, which are not always exact repeats. Identical values can stand only once.
Biological target: T1, Diacylglycerol O-acyltransferase 2 (Homo sapiens, UniProt Q96PD7)
T1 sequence (Q96PD7 whole entry): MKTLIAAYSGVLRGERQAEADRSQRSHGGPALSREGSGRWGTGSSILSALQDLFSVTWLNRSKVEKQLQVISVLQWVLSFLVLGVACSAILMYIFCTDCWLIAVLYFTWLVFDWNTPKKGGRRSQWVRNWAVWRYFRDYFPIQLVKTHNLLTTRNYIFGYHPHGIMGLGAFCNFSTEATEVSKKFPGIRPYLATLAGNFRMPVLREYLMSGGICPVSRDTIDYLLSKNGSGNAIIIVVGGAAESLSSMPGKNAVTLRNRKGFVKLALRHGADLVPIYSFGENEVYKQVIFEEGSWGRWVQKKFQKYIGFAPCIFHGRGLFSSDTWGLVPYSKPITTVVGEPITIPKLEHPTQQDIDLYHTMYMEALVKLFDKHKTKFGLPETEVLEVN
Experiment: DGAT2 enzymatic activity assay
Method: DGAT2 activity was determined by measuring the amount of enzymatic product 13Ci8-triolein (13C-l,2,3-Tri(cis-9-octadecenoyl)glycerol) using the membrane prep mentioned above. The assay was carried out in ABgene 384-well assay plates in a final volume of 25 pL at rt. The assay mixture contained the following: assay buffer (100 mM Tris Cl, pH 7.0, 20 mM MgCl2, 5% ethanol), 25 pM of di olein, 5 μM of 13C oleoyl-CoA and 8 ng/pL of DGAT2 membrane.

Row | SMILES | IC50
1 | CC(C)n1c(=O)n(-c2cccc(OC(F)F)c2)c2ccc(C(=O)NC3(C)CS(=O)(=O)C3)cc21 [WO2022076495, EXAMPLE 12] | 88 nM and 122 nM
2 | CC(C)n1c(=O)n(-c2cccc(OC(F)F)c2)c2cc(F)c(C(=O)NC3(C)CS(=O)(=O)C3)cc21 [WO2022076495, EXAMPLE 24] | 66 nM and 54 nM
3 | CC(C)n1c(=O)n(-c2cccc(OC(F)F)c2)c2cc(F)c(C(=O)NC(C)C(C)(C)O)cc21 (stereo not drawn) [WO2022076495, EXAMPLE 27] | > 10000 nM
4 | CC(C)n1c(=O)n(-c2cccc(OC(F)F)c2)c2cc(F)c(C(=O)N[C@H]3CCC[C@@H]3O)cc21 [WO2022076495, EXAMPLE 28] | 779 nM
5 | CC(C)n1c(=O)n(-c2cccc(OC(F)F)c2)c2cc(F)c(C(=O)N[C@H]3CCOC[C@@H]3O)cc21 [WO2022076495, EXAMPLE 29] | 1260 nM
6 | CC(C)n1c(=O)n(-c2cccc(OC(F)F)c2)c2cc(F)c(C(=O)N[C@H]3CCCC(F)(F)[C@H]3O)cc21 [WO2022076495, EXAMPLE 30] | 31 nM
7 | CC(C)n1c(=O)n(-c2cccc(OC(F)F)c2)c2cc(F)c(C(=O)N[C@@H]3CCCC[C@H]3O)cc21 [WO2022076495, EXAMPLE 31] | 106 nM
8 | CC(C)n1c(=O)n(-c2cccc(OC(F)F)c2)c2cc(F)c(C(=O)N[C@H]3CCCC[C@@H]3O)cc21 [WO2022076495, EXAMPLE 35] | 71 nM
9 | CCn1c(=O)n(-c2cccc(OC(F)F)c2)c2cc(F)c(C(=O)NC3(C)CS(=O)(=O)C3)cc21 [WO2022076495, EXAMPLE 40] | 194 nM
10 | CC1(NC(=O)c2cc3c(cc2F)n(-c2cccc(OC(F)F)c2)c(=O)n3CC(F)(F)F)CS(=O)(=O)C1 [WO2022076495, EXAMPLE 43] | 202 nM
11 | C[C@@H](C(F)F)n1c(=O)n(-c2cccc(OC(F)F)c2)c2ccc(C(=O)NC3(C)CCS(=O)(=O)CC3)cc21 [WO2022076495, EXAMPLE 45b] | 101 nM
12 | CC[C@@H](C)n1c(=O)n(-c2cccc(OC(F)F)c2)c2ccc(C(=O)NC3(C)CS(=O)(=O)C3)cc21 [WO2022076495, EXAMPLE 46a] | 81 nM
13 | CC[C@H](C)n1c(=O)n(-c2cccc(OC(F)F)c2)c2ccc(C(=O)NC3(C)CS(=O)(=O)C3)cc21 [WO2022076495, EXAMPLE 46b] | 92 nM
14 | CC(C)n1c(=O)n(-c2cccc(OC(F)F)c2)c2ccc(C(=O)NCC3(O)CCOC3)cc21 (stereo not drawn) [WO2022076495, EXAMPLE 62] | > 9990 nM
15 | CC(C)(O)Cn1c(=O)n(-c2cccc(OC(F)F)c2)c2ccc(C(=O)NC3(C)CS(=O)(=O)C3)cc21 [WO2022076495, EXAMPLE 64] | 37 nM

Other lines, results leading:

Row | IC50 | SMILES
16 | 16 nM | CC(C)n1c(=O)n(-c2cccc(OC(F)(F)C(F)(F)F)c2)c2ccc(C(=O)NC3(C)CS(=O)(=O)C3)cc21 [WO2022076495, EXAMPLE 7]
17 | 6.7 nM | CC(C)n1c(=O)n(-c2cc(OCC(F)F)ncc2F)c2ccc(C(=O)NC3(C)CCS(=O)(=O)CC3)cc21 [WO2022076495, EXAMPLE 15]
18 | 31 nM | CCOc1cc(-n2c(=O)n(C(C)C)c3cc(C(=O)NC4(C)CS(=O)(=O)C4)ccc32)c(F)cn1 [WO2022076495, EXAMPLE 16]
19 | 19 nM | CC1(NC(=O)c2cc3c(cc2F)n(-c2cccc(OC(F)F)c2)c(=O)n3C2CCOCC2)CS(=O)(=O)C1 [WO2022076495, EXAMPLE 36]
20 | 12 nM | C[C@H](C(F)F)n1c(=O)n(-c2cccc(OC(F)F)c2)c2ccc(C(=O)NC3(C)CCS(=O)(=O)CC3)cc21 [WO2022076495, EXAMPLE 45a]
21 | 0.7 nM | CC(n1c(=O)n(-c2cc(OC(F)F)ccc2F)c2ccc(C(=O)NC3(C)CS(=O)(=O)C3)cc21)C(C)(C)O (stereo not drawn) [WO2022076495, EXAMPLE 65]
22 | 1.1 nM | C[C@H](n1c(=O)n(-c2cc(OC(F)F)ccc2F)c2ccc(C(=O)NC3(C)CCS(=O)(=O)CC3)cc21)C(C)(C)O [WO2022076495, EXAMPLE 66a]
23 | 17 nM | C[C@@H](n1c(=O)n(-c2cc(OC(F)F)ccc2F)c2ccc(C(=O)NC3(C)CCS(=O)(=O)CC3)cc21)C(C)(C)O [WO2022076495, EXAMPLE 66b]

Reference: BindingDB's records for patent WO2022076495 (MERCK SHARP & DOHME CORP., 2022)
